Patent publication US20020088029A1, “Plant transformation methods” (priority 1998, published 2002)

Legend:
cell line HE/89 = assay: DNA fragmentation (DNA ladders) in maize cells inoculated with Agrobacterium; assay type: cell-based, Zea mays L.; conditions: HE/89 cells inoculated with Agrobacterium, agent added
Description: In order to determine the mechanism of cell death induced by Agrobacterium in maize tissues, genomic DNA is extracted from plant suspension cells harvested 24 or 48 hours after inoculation with Agrobacterium. Exposure to Agrobacterium causes DNA fragmentation in both maize lines, with a pattern characteristic of internucleosomal fragmentation, which is considered an early hallmark of programmed cell death. […] Furthermore, maize cells undergoing programmed cell death could not induce cell death of fresh maize embryogenic tissues.
Further evidence for Agrobacterium inducing DNA fragmentation is obtained by investigating the sensitivity of the process to Zn^2+ and Ca^2+. […] These characteristics are fully consistent with the effect of these divalent cations on the endogenous endonucleases responsible for DNA cleavage during apoptosis in animal system. The intensity of the ladder also is decreased by addition of cycloheximide, evidence that the process requires de novo gene expression. […] Fragmentation of DNA during apoptosis is also detected in situ by reagents that react with the exposed hydroxyls on the nucleosome units. 12 day old maize embryos from a proprietary elite line of Lancaster parentage are inoculated with LBA4404 and plated on DG4 medium supplemented with chloramben. Koziel, M.G., & al. 1993. Bio/Technology 11: 194-200. Apoptotic cells are detected by in situ staining with TACS-1 kit (Trevigen), which involves end labeling the DNA fragments by the klenow enzyme using dNTP conjugated to a detectable marker, giving a dark insoluble precipitate indicative of genomic fragmentation. Cullivier, O., Pirianov, G., Kleuser, B., Vanek, P.G., Coso, O.A., Gutking, J.S. and Spiegel, S. (1996) Nature 381, 800-803. Embryos are soaked in 3.7% formadehyde solution and processed as described by the manufacturer. To detect genomic DNA cleavage in situ, fixed embryos are treated with the TACS-1 kit. Fixed cross-sections are first treated with proteinase K for 5 min at room temperature and then dipped for 5 min into 2% hydrogen peroxide to remove endogenous peroxidase. […]

[1] = tested on: HE/89 maize friable embryogenic callus
Description: The following experiments employ maize inbred lines (Zea mays L.) HE/89 and a line here designated as Elite 1. […] Suspension culture of Elite 1 is initiated from friable embryogenic callus selected from immature embryos. The HE/89 line is grown in a modified liquid N6 medium amended with 500 mg/l Bacto tryptone, 30 g/l sucrose and 0.5 mg/l 2,4-dichlorophenoxy acetic acid (2,4-D) (N6M). The Elite 1 line is grown in N6 liquid medium (Chu et al., 1975) supplemented with 30 g/l sucrose and 2 mg/l 2,4-D (2N63S). The Nicotiana tabacum cell line NT-1 grown in Murashige and Skoog medium supplemented with 2 mg/l of 2,4-D and sucrose (30 g/l) (MS3S) is used as an Agrobacterium-susceptible control. Suspension cultures are maintained in liquid medium on a rotary shaker (120 rpm) and are subcultured every 7 days.
Bacteria are grown in YP medium (5 g/L yeast extract, 10 g/l peptone, 5 g/l NaCl, pH 6.8) for 24 hr at 28° C. […]
Friable embryogenic callus of HE/89 maize and of a proprietary elite inbred maize maintained in liquid medium are incubated with Agrobacterium for 10 min, 1 hr, 24 hr or 48 hrs prior to transfer to cefotaxim-containing medium. […] The presence or absence of necrosis is scored 2, 4 and 7 days after inoculation and the relative intensity of necrosis is expressed as follow: +, rare formation of necrosis; ++, weak necrosis; +++, strong necrosis; ++++, very strong necrosis.

maize type I callus = assay: Inoculation of maize type I callus with or without silver nitrate, survival of tissues; assay type: cell-based; conditions: ½ month old type I callus, co-inoculation 2DG4 + AgNO3, transfer 2DG4 + AgNO3 + Cef, 2 weeks
maize embryos = assay: Inoculation of maize embryos with LBA4404 with or without silver nitrate, callus initiation; assay type: cell-based
Description: Inhibition of Agrobacterium-induced programmed cell death Preparation of tissues for inoculation with Agrobacterium: Immature embryos (1.2 to 2.2 mm in length) are aseptically excised 14-15 days after pollination from surface-sterilized, greenhouse-grown ears and plated scutellum up on callus initiation medium, 2DG4+5 mg/l chloramben (2DG4-5Chl).
Immature embryos are sterilized as described above and plated on callus initiation medium (2DG4-5Chl) and cultured therein for 1 to 7 days. The resulting tissue is used as samples for inoculation.
Agrobacterium is grown for 3 days on YP medium (5 g/l yeast extract, 10 g/l peptone, 5 g/l NaCl, 15 g/l agar, pH 6.8) supplemented with 50 mg/l spectinomycin and 10 mg/l tetracycline. Bacteria are collected with a loop and suspended in N6 liquid medium at a density ranging from 10^9 to 5 10^9 cells/ml. Agrobacterium cells can also be collected from an overnight culture in YP medium and resuspended in N6 liquid medium.
Maize tissues prepared as described above are inoculated with Agrobacterium. […] Tissues are also inoculated with a 5 μl drop 10^9 to 5×10^9 cells/ml of an Agrobacterium suspension placed on the top of the tissue.

tobacco leaf discs = conditions: silver nitrate present during co-cultivation; LBA4404(GIGUP) 10^9 cells/ml

For `[Ca+2]` [Ca^2+], the “intensity of DNA ladders (genomic fragmentation)” value (shortened to “intensity of DNA ladders”) (cell line HE/89) was “increased the intensity of DNA ladders”.
In the case of `[Zn+2]` [Zn^2+], the “intensity of DNA ladders” value (cell line HE/89) is reported as “markedly reduced genomic fragmentation”.
With `CO/N=C(\C(=O)N[C@@H]1C(=O)N2C(C(=O)O)=C(COC(C)=O)CS[C@H]12)c1csc(N)n1` [cefotaxime] the “necrosis of maize tissue” value [1] was “does not cause the maize tissue to become necrotic”.
For `C[C@@H]1C[C@@H]([C@H](O)CC2CC(=O)NC(=O)C2)C(=O)[C@@H](C)C1` [cycloheximide], the “intensity of DNA ladders” value (cell line HE/89) was “decreased”.
For `O=[N+]([O-])[O-].[Ag+]` [AgNO3, silver nitrate], the “Score (survival of tissues)” value (maize type I callus; pretreatment 2DG4 + AgNO3) was 95%, the “Score (survival of tissues)” value (maize type I callus; pretreatment 2DG4) was 75% and the “embryos able to produce embryogenic calli” value (maize embryos; embryos plated on medium containing silver nitrate after Agrobacterium inoculation) was “About 50%”. For the same compound, the “Score (callus initiation)” value (maize embryos; no pretreatment, co-inoculation 2DG4, transfer 2DG4 + AgNO3 + Cef, LBA4404 (GIGUP) 10^9 cells/ml, two weeks after inoculation) was 30% and the “GUS activity in tobacco leaves (Agrobacterium virulence)” value (tobacco leaf discs) was “No significant decrease”.
